Paper PMC9814792 (Communications Chemistry, 2022)

Key:
[1] = system: CT26 tumor tissue; experiment: Tumor tissue markers (mitoses, Ki-67, pH2AX, GSH) after one week of therapy; assay type: in vivo, BALB/c mice; conditions: for number of mitotic tumor cells as compared to solvent controls: H&E-stained sections
Description: (§1) Eight-to nine-week-old female BALB/c mice bred in-house (originally Janvier) were kept in pathogen-free conditions and controlled environment with 12 h light-dark cycle. CT26 cells (5 × 10^5 in 50 µL serum-free RPMI medium) were injected subcutaneously (s.c.) into the right flank of the animals. […] Tumor growth was evaluated by daily recording of tumor size by caliper measurement. […] For drug distribution (digestion and ICP-MS measurement details see below), histological and GSH determination experiments, mice were treated twice during one week and sacrificed 24 h after the last drug dosing. The animal experiments were performed according to the regulations of the Ethics Committee for the Care and Use of Laboratory Animals at the Medical University Vienna (proposal number BMBWF-V/3b 2020-0.380.502).
(§2) Formalin-fixed, paraffin-embedded tissue sections were prepared from tumors and animal organs (animal experiment details see above) and H&E stains performed by standard methods. Mouse-specific Ki-67 rabbit mAb (#12202) and mouse-specific pH2AX rabbit mAb (#9718) were purchased from Cell Signaling Technology (Beverly, MA, USA) and used following the manufacturer’s recommendations in a dilution of 1:200 (Ki-67) and 1:500 (pH2AX) for immunohistochemical staining.
(§3) GSH levels in HCT116 and HCT116/OxR cells (7.5 × 10^4 cells per well in 96-well plates, in triplicate), or in CT26 tumor tissues (25–50 mg/sample) were determined using the luminescence-based detection system GSH/GSSG-Glo^TM assay (Promega, Madison, WI) following the manufacturer’s recommendations. Quantifications are based on the comparison with a GSH standard curve delivered in the assay and normalized to the total protein content of the samples determined by the Micro BCA^TM protein assay kit (Thermo Scientific).

[2] = Serum pharmacokinetics (platinum by ICP-MS) after single dose; assay type: in vivo, BALB/c mice; conditions: for serum half-life (fast), two-phase decay model / serum half-life (slow), two-phase decay model / serum half-life, one-phase decay model: serum platinum
Description: Blood was drawn after 5 min, 30 min, 6 h, 24 h, 72 h, 1 and 2 weeks from the facial vein as published. Serum was isolated by centrifugation at 900 g for 10 min for two times and stored at –80 °C. In addition, blood samples and tissues from the allograft experiment after the two-weeks therapy experiment were analyzed. Digestion of tissue (approx. 10–30 mg gravimetrically weighted) was performed with 2 mL of approx. 20% nitric acid and 100 µL H2O2 using an open vessel graphite digestion system (coated graphite heating plate, coated sample holder-top for 25 mL vials, perfluoroalkoxy (PFA) vials and PFA lids; Labter, ODLAB; AHF Analysentechnik AG; Germany). HNO3 (67–69%, suprapur for trace metal analysis, NORMATOM; VWR international, Austria) and conc. H2O2 suprapur (Merck, 30%) were used without further purification. Ultrapure water (18.2 MΩ cm, Milli-Q Advantage, Darmstadt, Germany) was used for all dilutions for ICP-MS measurements. Platinum and rhenium standards for ICP-MS measurements were derived from CPI International (Amsterdam, The Netherlands). The platinum content was determined using an Agilent 7800 ICP-MS instrument. The ICP-MS Agilent 7800® (Agilent Technologies, Tokyo, Japan) was equipped with an Agilent SPS 4 autosampler (Agilent Technologies, Tokyo, Japan) and a MicroMist nebulizer at a sample uptake rate of approx. 0.2 mL/min. The Agilent MassHunter® software package (Workstation Software, version C.01.04, Build 544.17, Patch 3, 2018) was used for data processing. The instrument was tuned on a daily basis to achieve maximum sensitivity. In case of the single-dose experiment, serum area-under the curve (AUC) and serum half-life (one-phase and two-phase decay models) were determined using the respective non-linear fit regression models of GraphPad Prism software.

[3] = target: T1, albumin (Bos taurus, UniProt P02769); experiment: Albumin binding in fetal calf serum by SEC-ICP-MS; assay type: in vitro ADME; conditions: fetal calf serum 37 °C, 100 μM
T1 construct: tissue Sigma-Aldrich; host or cells: fetal calf serum
Description: Fetal calf serum was purchased from Sigma-Aldrich and buffered with 150 mM phosphate buffer (pH 7.4) to guarantee a stable pH. The platinum(IV) complexes were dissolved in 150 mM phosphate buffer (pH 7.4) to 1 mM and diluted 1:10 in serum to obtain a final concentration of 100 μM. The samples were then incubated in the autosampler at 37 °C for 24 h and analyzed at 0 h, 1 h, 4 h, and 24 h. Between each sample, a pure water blank was measured. For SEC-ICP-MS measurements, an Agilent 1260 Infinity system coupled to an Agilent 7800 ICP-MS equipped with a dynamic reaction cell was used. Oxygen (purity 5.5, Messer AustriaGmbH, Gumpoldskirchen, Austria) was used as reaction gas at 30% and 0.9 L/min flow.

[4] = Tissue/organ platinum distribution in CT26 allograft mice; assay type: in vivo, BALB/c mice; conditions: two i.v. doses in one week, 24 h after second dosing
Description: as §1

[5] = system: kidney, lung, liver sections; experiment: pH2AX DNA damage staining in healthy organs; assay type: in vivo, BALB/c mice; conditions: lung and kidney sections
Description: (§4) Eight-to nine-week-old female BALB/c mice bred in-house (originally Janvier) were kept in pathogen-free conditions and controlled environment with 12 h light-dark cycle. CT26 cells (5 × 10^5 in 50 µL serum-free RPMI medium) were injected subcutaneously (s.c.) into the right flank of the animals. […] Tumor growth was evaluated by daily recording of tumor size by caliper measurement. […] The reasons were primarily either enhanced tumor size or ulceration. For drug distribution (digestion and ICP-MS measurement details see below), histological and GSH determination experiments, mice were treated twice during one week and sacrificed 24 h after the last drug dosing. The animal experiments were performed according to the regulations of the Ethics Committee for the Care and Use of Laboratory Animals at the Medical University Vienna (proposal number BMBWF-V/3b 2020-0.380.502).
as §2

[6] = system: CT26 allografts; experiment: In vivo anticancer activity, CT26 allografts; design: species or system BALB/c mice; conditions: for tumor doubling time extended: CT26 allografts, equimolar doses; for tumor doubling time extended / maximal tumor growth inhibition: twice a week for two weeks; for maximal tumor growth inhibition: day 11, CT26 allografts, equimolar to 9 mg/kg oxaliplatin i.v.; for tumor volumes as compared to solvent controls: first two weeks of treatment
Description: as §4

[7] = design: method as in PMID 7895599; conditions: patients; cited from earlier work
[8] = system: A2780/Cis cells; experiment: 72 h cell viability (MTT) assay; assay type: cell-based, human
Description: (§5) Cells were seeded (3–4 ×10^3 cells/well) in 96-well plates in 100 µL and after 24 h recovery treated with 100 µL of compounds at the indicated concentrations in triplicates. After 72 h drug exposure cell viability was determined by 3-(4,5-dimethylthiazol-2-yl)-2,5-diphenyltetrazolium bromide (MTT)-vitality assay (EZ4U, Biomedica, Vienna, Austria) following the manufacturer’s recommendations, as published. Absorbance was measured at 450 nm (at 620 nm as reference) using the multimode plate reader Tecan Infinite 200 Pro (Zurich, Switzerland). Cytotoxicity was expressed as IC50 values calculated from full dose-response curves using the 4 parameter nonlinear regression model of GraphPad Prism 8 software (La Jolla, CA, USA).

[9] = system: A2780 cells; experiment: 72 h cell viability (MTT) assay; assay type: cell-based, human; conditions: A2780, 72 h continuous exposure; read-out: IC50 value (95% confidence interval)
Description: as §5

[10] = system: HaCat keratinocytes; experiment: 72 h cell viability (MTT) assay; assay type: cell-based, human
Description: as §5

[11] = system: HCT116 cells; experiment: 72 h cell viability (MTT) assay; assay type: cell-based, human; conditions: HCT116, 72 h continuous exposure; read-out: IC50 value (95% confidence interval)
Description: as §5

[12] = system: BEC endothelial cells; experiment: 72 h cell viability (MTT) assay; assay type: cell-based, human
Description: as §5

[13] = system: HCT116 and HCT116/OxR cells; experiment: In vitro platinum cell uptake by ICP-MS; assay type: cell-based, human; conditions: 3 h exposure
Description: Cells were seeded at 1.5 ×10^5 cells/well in six-well plates in 1.5 mL and after 24 h recovery treated with 500 µL of compounds at the indicated concentrations in triplicates. After 3 h drug exposure, cells were detached, washed twice with phosphate-buffered saline (PBS), dried at RT for 15 min and lysed in 100 µL HNO3 (69%, Rotipuran Supra, Carl Roth, Karlsruhe, Germany) for 1 h at RT. The lysate was added to fresh tubes containing 200 µL ddH2O. ICP-MS measurements were performed with an Agilent 8800 ICP-MS/MS instrument (Agilent Technologies, Tokyo, Japan). The sample introduction system consisted of a MicroMist nebulizer (200 μL min^−1 nominal sample uptake) and a quartz double-pass spray chamber. The instrument was tuned on a daily basis in order to achieve maximum sensitivity, low oxide formation, and low doubly charged ratios. Platinum was monitored in no gas mode with an integration time of 0.3 s. The flow injection measurements were performed with a bioinert HPLC 1260 (Agilent Technologies, Waldbronn, Germany), which was directly connected to the nebulizer of the ICP-MS/MS instrument with a PEEK tubing. The following chromatographic conditions were used: injection volume: 10 µL; flow rate: 0.30 mL min^-1; isocratic elution; CH3COONH4 (50 mM, pH = 6.8) aqueous solution was employed as mobile phase. The data were recorded and evaluated with the Agilent MassHunter Chromatography software package, MassHunter 4.6., 2019.

[14] = system: HCT116 and HCT116/OxR cells; experiment: Cellular GSH content (GSH/GSSG-Glo); assay type: cell-based, human; conditions: 24 h exposure, single agent
Description: as §3

[15] = Tolerability in mice; assay type: in vivo, BALB/c mice
Description: as §4

[16] = system: HCT116/OxR cells; experiment: 72 h cell viability (MTT) assay; assay type: cell-based, human; conditions: HCT116/OxR, 72 h continuous exposure; read-out: IC50 value (95% confidence interval)
Description: Absorbance was measured at 450 nm (at 620 nm as reference) using the multimode plate reader Tecan Infinite 200 Pro (Zurich, Switzerland). Cytotoxicity was expressed as IC50 values calculated from full dose-response curves using the 4 parameter nonlinear regression model of GraphPad Prism 8 software (La Jolla, CA, USA).

T1 sequence (P02769 25-607): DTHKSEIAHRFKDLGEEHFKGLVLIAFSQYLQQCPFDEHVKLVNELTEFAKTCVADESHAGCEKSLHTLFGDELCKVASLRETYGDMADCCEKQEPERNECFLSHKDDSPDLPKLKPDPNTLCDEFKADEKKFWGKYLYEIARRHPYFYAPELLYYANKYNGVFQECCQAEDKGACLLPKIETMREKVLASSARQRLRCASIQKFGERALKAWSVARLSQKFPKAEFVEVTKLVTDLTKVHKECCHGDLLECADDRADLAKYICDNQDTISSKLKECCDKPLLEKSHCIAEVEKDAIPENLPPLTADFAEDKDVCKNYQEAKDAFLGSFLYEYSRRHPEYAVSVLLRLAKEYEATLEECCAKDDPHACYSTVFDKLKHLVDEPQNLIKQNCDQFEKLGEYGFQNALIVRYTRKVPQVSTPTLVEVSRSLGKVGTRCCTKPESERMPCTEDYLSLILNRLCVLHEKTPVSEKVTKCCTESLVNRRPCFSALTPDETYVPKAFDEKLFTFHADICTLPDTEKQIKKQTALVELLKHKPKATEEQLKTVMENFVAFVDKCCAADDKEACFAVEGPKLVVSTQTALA

## CCCCS(=N)(=O)CCC(NC(=O)[O][Pt]1([O]C(=O)NCCCCCN2C(=O)C=CC2=O)[O]C(=O)C(=O)[O]1)C(=O)O.NC1CCCCC1N (mixture of isomers) [BSO-OxMal, (OC-6-24)-((1 S)-3-(Butylsulfonimidoyl)-1-carboxypropyl)carbamato(1 R,2 R)-1,2-cyclohexanediamino(5-(2,5-dioxo-2,5-dihydro-1H-pyrrol-1-yl)pentyl)carbamatooxalatoplatinum(IV)]
[1]; one week of therapy
  number of mitotic tumor cells as compared to solvent controls: significantly reduced
  GSH content in malignant tissue: significantly stronger effect
[1]; non-necrotic parts of the tumor
  DNA damage (pH2AX) in tumor: distinctly enhanced DNA damage as compared to oxaliplatin
[1]; non-necrotic tumor regions, one week of therapy
  Ki-67 antiproliferative effect: significantly stronger antiproliferative effect
[2]; depending on the regression model used
  serum half-life higher as compared to oxaliplatin: more than 10 fold
[2]; single equimolar dose, mice
  serum half-life (fast), two-phase decay model: 73.02 min
  serum half-life (slow), two-phase decay model: 22.28 h
  serum half-life, one-phase decay model: 3.968 h
  increase of AUC (total area) as compared to oxaliplatin: > 12 fold
[3]; t 0 h
  bound to albumin fraction: 76%
  free (low molecular weight fraction): 24%
[3]; t 1 h
  bound to albumin fraction: 100%
  free (low molecular weight fraction): 0%
[3]; t 4 h
  bound to albumin fraction: 100%
  free (low molecular weight fraction): 0%
[3]; t 24 h
  bound to albumin fraction: 97%
  free (low molecular weight fraction): 3%
[4]
  increased serum platinum levels in comparison to oxaliplatin: more than 20 fold
[5]
  DNA damage (pH2AX) in healthy organs: avoids renal DNA damage
[6]
  tumor doubling time extended: 1.8 fold
  maximal tumor growth inhibition: 61.2%
  tumor volumes as compared to solvent controls: significantly reduced tumor volumes
[6]; Kaplan Meier, Mantel-Cox test
  overall survival: significantly increased overall survival

## CCCCS(=N)(=O)CC[C@H](N)C(=O)O (stereo partly drawn) [BSO, L-Buthionine-S,R-sulfoximine]
[7]
  plasma half-life: < 2 h

## N.N.[Cl][Pt][Cl] [cisplatin, reference compound]
[8]; A2780/Cis, 72 h continuous exposure, read-out: IC50 value (95% confidence interval)
  IC50: 7.7 µM
[8]; IC50 A2780/Cis divided by IC50 A2780
  resistance factor: 4.1
[9]
  IC50: 1900 nM

## O=C1[O][Pt]2([NH][C@@H]3CCCC[C@H]3[NH]2)[O]C1=O [oxaliplatin, reference compound]
[1]; one week of therapy
  number of mitotic tumor cells as compared to solvent controls: significantly reduced
  GSH content in malignant tissue: distinctly reduced the content of GSH
[2]; single equimolar dose, mice
  serum half-life (fast), two-phase decay model: 9.168 min
  serum half-life (slow), two-phase decay model: 15.38 h
  serum half-life, one-phase decay model: 0.2624 h
[10]
  IC50: 3.4 µM
[11]
  IC50: 580 nM
[12]
  IC50: 10.3 µM
[13]
  intracellular accumulation in HCT116/OxR as compared to parental HCT116: significantly reduced
[14]
  impact on cellular GSH content: did not alter the GSH content
[15]
  maximum tolerated dose (MTD): 9 mg/kg
[16]
  IC50: > 10 µM
[5]
  DNA damage (pH2AX) in healthy organs: induced pH2AX-positive cells in both lung and kidney samples
[6]
  tumor doubling time extended: 1.3 fold
  maximal tumor growth inhibition: 51.3%
  tumor volumes as compared to solvent controls: significantly reduced tumor volumes
